US20240016938A1, “METHODS FOR INCREASING THE BIOAVAILABILITY OF NUCLEOSIDE MEDICINAL AGENTS” (ZOGENIX MDS, INC., priority 2022, published 2024)
Where two headings read alike, the source gives them in different places.

Test: Phase 1 open-label, fixed-sequence, single-ascending dose and food-effect PK study of MT1621 in adult healthy subjects
Type: in vivo, human
Protocol: A phase 1 study was conducted as an open-label, fixed-sequence, single-ascending dose study in adult healthy subjects designed to evaluate the safety, tolerability, PK, and food-effect of MT1621 (dC and dT). To evaluate the PK of MT1621, the combination was administered at three different doses. Treatment A was a 43.3 mg/kg dose of MT1621 (i.e., a 43.3 mg/kg dose of dC and a 43.3 mg/kg dose of dT (each approximately equivalent to 1 dose of a 130 mg/kg daily dose, divided 3 times daily [TID])) in healthy male and female subjects under fasting conditions; Treatment B was an 86.7 mg/kg dose of MT1621 (i.e., a 86.7 mg/kg dose of dC and a 86.7 mg/kg dose of dT (each approximately equivalent to 1 dose of a 260 mg/kg daily dose, divided TID)) in healthy male and female subjects under fasting conditions; and Treatment C was a 133.3 mg/kg dose of MT1621 (i.e., a 133.3 mg/kg dose of dC and a 133.3 mg/kg dose of dT (each approximately equivalent to a 400 mg/kg daily dose, divided TID)) in healthy male and female subjects under fasting conditions. Additionally, Treatment D was a 133.3 mg/kg dose of MT1621 (i.e., a 133.3 mg/kg dose of dC and a 133.3 mg/kg dose of dT (each approximately equivalent to a 400 mg/kg daily dose, divided TID) in healthy male and female subjects under fed conditions, to determine the effect of a high-fat meal on the single-dose PK of MT1621.
Methodology of open-label, Phase 1, fixed-sequence, single-dose, dose escalation, and food-effect study. Fourteen (14) healthy, adult, male and female subjects were enrolled with an approximately equal distribution (at least 40% of each sex) between male and female subjects.
On Day 1 of each period, subjects received 1 of 3 dose levels of MT1621 under fasting conditions as escalating single doses over 3 periods in Part A (Treatments A, B, and C in Periods 1, 2, and 3, respectively) and with the highest dose under fed conditions in Part B (Treatment D in Period 4). Four (4) of 14 subjects that completed Part A (Periods 1 to 3) could not complete Part B (Treatment D in Period 4) during the original confinement. These subjects were then to return to the clinical unit and continue the study to complete Part B (Treatment D in Period 4); 2 of the 4 subjects completed Part B.
Each treatment was assessed by blood and urine PK sampling pre-dose and up to 48 hours post-dose for the determination of dC and dT in plasma and urine PK, and possible future analysis of blood for PD biomarkers.
A washout period of at least 2 days without drug between each treatment administration was maintained. Fourteen subjects were enrolled in the study, and 12 subjects completed the study. Data from 14 subjects were included in the PK analysis of Periods 1, 2, and 3 and data from 12 subjects were included in the PK analysis of Period 4.
Study drug administered in Example 1 was 0.5 g dC and 0.5 g dT powders for solution and were reconstituted in juice or water.
After reconstitution in a fixed amount of water or juice, the solution was administered via measured volume to provide the amounts specified in Studies A, B, C, and D.
MT1621 was administered orally at Hour 0 on Day 1, following an overnight fast for Treatments A, B, and C and within 5 minutes of consumption of a standardized high-fat breakfast (which included eggs, bacon, and toast with butter) for Treatment D.
Blood samples for the determination of plasma dC and dT concentrations were collected on Day 1 of each period at pre-dose (0 hour), and at 0.25, 0.5, 1, 1.5, 2, 3, 4, 5, 6, 8, 12, 24, and 48 after study drug administration. In Period 4, blood was collected for the 48-hour PK sample; for Periods 1 through 3, the 48-hour PK sample was collected at the same time as the pre-dose PK sample from the next period so only 1 sample was collected for both PK time points. It should be pointed out that Periods 1-3 used sampling up to 24 hours for PK while Period 4 used the complete 48-hour profile. […]

[1] = 100*(test/reference): 133.3 mg/kg MT1621 fed vs fasted, baseline-adjusted plasma
[2] = Treatment A: single 43.3 mg/kg MT1621, fasted, baseline-adjusted plasma, arithmetic mean ± SD
[3] = Treatment B: single 86.7 mg/kg MT1621, fasted, baseline-adjusted plasma, arithmetic mean ± SD
[4] = Treatment D: single 133.3 mg/kg MT1621, fed (high-fat breakfast), baseline-adjusted plasma, arithmetic mean ± SD

SMILES: Nc1ccn([C@H]2C[C@H](O)[C@@H](CO)O2)c(=O)n1 [dC, β-D-2′-deoxycytidine]
- increase in baseline adjusted AUC, fed compared to fasted (133.3 mg/kg MT1621, plasma): 137%
- increase in baseline adjusted Cmax, fed compared to fasted (133.3 mg/kg MT1621, plasma): 79%
- AUC0-t GMR (%) [1]: 237.18%
- Cmax GMR (%) [1]: 178.88%
- AUC%extrap [2]: 11.36 ± 8.5281%
- Kel [2]: 0.1280 ± 0.1276 h⁻¹
- AUC%extrap [3]: 12.46 ± 13.194%
- Kel [3]: 0.2030 ± 0.1938 h⁻¹
- AUC%extrap (Treatment C: single 133.3 mg/kg MT1621, fasted, baseline-adjusted plasma, arithmetic mean ± SD): 1.152 ± 1.0948%
- AUC%extrap [4]: 3.567 ± 5.0087%
- Kel [4]: 0.7971 ± 0.3869 h⁻¹
- dose proportionality of Cmax (across the 3 fasted dose levels (Treatments A, B, C), plasma): less than dose-proportional
- Vd/F (both sexes, human, oral, Treatment D: single 133.3 mg/kg MT1621, fed (high-fat breakfast), baseline-adjusted plasma, arithmetic mean ± SD, read-out: Vz/F): 1660 ± 1470 L/kg
- half-life (both sexes, human, plasma, oral, 43.3 mg/kg, 43.3 mg/kg dose level, read-out: geometric mean elimination half-life (converted)): 2.16 h
- half-life (both sexes, human, plasma, oral, 43.3 mg/kg, Treatment A: single 43.3 mg/kg MT1621, fasted, baseline-adjusted plasma, arithmetic mean ± SD, read-out: t½ (converted)): 10.3 ± 8.2 h
- AUC(0-inf) (both sexes, human, plasma, oral, 43.3 mg/kg, Treatment A: single 43.3 mg/kg MT1621, fasted, baseline-adjusted plasma, geometric mean (geometric CV %)): 48.4 ng·h/mL
- AUC(0-t) (both sexes, human, plasma, oral, 43.3 mg/kg, Treatment A: single 43.3 mg/kg MT1621, fasted, baseline-adjusted plasma, geometric mean (geometric CV %), read-out: AUC0-4): 7.84 ng·h/mL
- AUC(0-t) (both sexes, human, plasma, oral, 43.3 mg/kg, Treatment A: single 43.3 mg/kg MT1621, fasted, baseline-adjusted plasma, geometric mean (geometric CV %), read-out: AUC0-6): 9.58 ng·h/mL
- AUC(0-t) (both sexes, human, plasma, oral, 43.3 mg/kg, Treatment A: single 43.3 mg/kg MT1621, fasted, baseline-adjusted plasma, geometric mean (geometric CV %), read-out: AUC0-48): 19.6 ng·h/mL
- AUC(0-t) (both sexes, human, plasma, oral, 43.3 mg/kg, Treatment A: single 43.3 mg/kg MT1621, fasted, baseline-adjusted plasma, geometric mean (geometric CV %), read-out: AUC0-t): 13.5 ng·h/mL
- Cmax (both sexes, human, plasma, oral, 43.3 mg/kg, Treatment A: single 43.3 mg/kg MT1621, fasted, baseline-adjusted plasma, geometric mean (geometric CV %), read-out: Cmax): 3.53 ng/mL
- Tmax (both sexes, human, plasma, oral, 43.3 mg/kg, Treatment A: single 43.3 mg/kg MT1621, fasted, baseline-adjusted plasma, median (minimum, maximum), read-out: Tmax): 1.25 h
- half-life (both sexes, human, plasma, oral, 86.7 mg/kg, 86.7 mg/kg dose level, read-out: geometric mean elimination half-life (converted)): 1.44 h
- half-life (both sexes, human, plasma, oral, 86.7 mg/kg, Treatment B: single 86.7 mg/kg MT1621, fasted, baseline-adjusted plasma, arithmetic mean ± SD, read-out: t½ (converted)): 8.62 ± 8.68 h
- AUC(0-inf) (both sexes, human, plasma, oral, 86.7 mg/kg, Treatment B: single 86.7 mg/kg MT1621, fasted, baseline-adjusted plasma, geometric mean (geometric CV %)): 26.6 ng·h/mL
- AUC(0-t) (both sexes, human, plasma, oral, 86.7 mg/kg, Treatment B: single 86.7 mg/kg MT1621, fasted, baseline-adjusted plasma, geometric mean (geometric CV %), read-out: AUC0-4): 10.3 ng·h/mL
- AUC(0-t) (both sexes, human, plasma, oral, 86.7 mg/kg, Treatment B: single 86.7 mg/kg MT1621, fasted, baseline-adjusted plasma, geometric mean (geometric CV %), read-out: AUC0-6): 12.8 ng·h/mL
- AUC(0-t) (both sexes, human, plasma, oral, 86.7 mg/kg, Treatment B: single 86.7 mg/kg MT1621, fasted, baseline-adjusted plasma, geometric mean (geometric CV %), read-out: AUC0-48): 29.4 ng·h/mL
- AUC(0-t) (both sexes, human, plasma, oral, 86.7 mg/kg, Treatment B: single 86.7 mg/kg MT1621, fasted, baseline-adjusted plasma, geometric mean (geometric CV %), read-out: AUC0-t): 23.2 ng·h/mL
- Cmax (both sexes, human, plasma, oral, 86.7 mg/kg, Treatment B: single 86.7 mg/kg MT1621, fasted, baseline-adjusted plasma, geometric mean (geometric CV %), read-out: Cmax): 4.67 ng/mL
- Tmax (both sexes, human, plasma, oral, 86.7 mg/kg, Treatment B: single 86.7 mg/kg MT1621, fasted, baseline-adjusted plasma, median (minimum, maximum), read-out: Tmax): 1.51 h
- half-life (both sexes, human, plasma, oral, 133.3 mg/kg, 133.3 mg/kg dose level, read-out: geometric mean elimination half-life (converted)): 3.01 h
- AUC(0-t) (both sexes, human, plasma, oral, 133.3 mg/kg, Treatment C, fasted, baseline-adjusted plasma, ANOVA on ln-transformed data, read-out: AUC0-t Geometric LSM, 133.3 mg/kg MT1621, Fasted (Reference)): 30.8 ng·h/mL
- Cmax (both sexes, human, plasma, oral, 133.3 mg/kg, Treatment C, fasted, baseline-adjusted plasma, ANOVA on ln-transformed data, read-out: Cmax Geometric LSM, 133.3 mg/kg MT1621, Fasted (Reference)): 7.17 ng/mL
- half-life (both sexes, human, plasma, oral, 133.3 mg/kg, Treatment C: single 133.3 mg/kg MT1621, fasted, baseline-adjusted plasma, arithmetic mean ± SD, read-out: t½ (converted)): 2.67 ± 1.98 h
- AUC(0-inf) (both sexes, human, plasma, oral, 133.3 mg/kg, Treatment C: single 133.3 mg/kg MT1621, fasted, baseline-adjusted plasma, geometric mean (geometric CV %)): 22.5 ng·h/mL
- AUC(0-t) (both sexes, human, plasma, oral, 133.3 mg/kg, Treatment C: single 133.3 mg/kg MT1621, fasted, baseline-adjusted plasma, geometric mean (geometric CV %), read-out: AUC0-4): 17.1 ng·h/mL
- AUC(0-t) (both sexes, human, plasma, oral, 133.3 mg/kg, Treatment C: single 133.3 mg/kg MT1621, fasted, baseline-adjusted plasma, geometric mean (geometric CV %), read-out: AUC0-6): 21.1 ng·h/mL
- AUC(0-t) (both sexes, human, plasma, oral, 133.3 mg/kg, Treatment C: single 133.3 mg/kg MT1621, fasted, baseline-adjusted plasma, geometric mean (geometric CV %), read-out: AUC0-48): 53.1 ng·h/mL
- AUC(0-t) (both sexes, human, plasma, oral, 133.3 mg/kg, Treatment C: single 133.3 mg/kg MT1621, fasted, baseline-adjusted plasma, geometric mean (geometric CV %), read-out: AUC0-t): 30.8 ng·h/mL
- Cmax (both sexes, human, plasma, oral, 133.3 mg/kg, Treatment C: single 133.3 mg/kg MT1621, fasted, baseline-adjusted plasma, geometric mean (geometric CV %), read-out: Cmax): 7.17 ng/mL
- Tmax (both sexes, human, plasma, oral, 133.3 mg/kg, Treatment C: single 133.3 mg/kg MT1621, fasted, baseline-adjusted plasma, median (minimum, maximum), read-out: Tmax): 1.26 h
- AUC(0-t) (both sexes, human, plasma, oral, 133.3 mg/kg, Treatment D, fed, baseline-adjusted plasma, ANOVA on ln-transformed data, read-out: AUC0-t Geometric LSM, 133.3 mg/kg MT1621, Fed (Test)): 73 ng·h/mL
- Cmax (both sexes, human, plasma, oral, 133.3 mg/kg, Treatment D, fed, baseline-adjusted plasma, ANOVA on ln-transformed data, read-out: Cmax Geometric LSM, 133.3 mg/kg MT1621, Fed (Test)): 12.8 ng/mL
- half-life (both sexes, human, plasma, oral, 133.3 mg/kg, Treatment D: single 133.3 mg/kg MT1621, fed (high-fat breakfast), baseline-adjusted plasma, arithmetic mean ± SD, read-out: t½ (converted)): 0.986 ± 0.478 h
- AUC(0-inf) (both sexes, human, plasma, oral, 133.3 mg/kg, Treatment D: single 133.3 mg/kg MT1621, fed (high-fat breakfast), baseline-adjusted plasma, geometric mean (geometric CV %)): 138 ng·h/mL
- AUC(0-t) (both sexes, human, plasma, oral, 133.3 mg/kg, Treatment D: single 133.3 mg/kg MT1621, fed (high-fat breakfast), baseline-adjusted plasma, geometric mean (geometric CV %), read-out: AUC0-4): 31.7 ng·h/mL
- AUC(0-t) (both sexes, human, plasma, oral, 133.3 mg/kg, Treatment D: single 133.3 mg/kg MT1621, fed (high-fat breakfast), baseline-adjusted plasma, geometric mean (geometric CV %), read-out: AUC0-6): 48.2 ng·h/mL
- AUC(0-t) (both sexes, human, plasma, oral, 133.3 mg/kg, Treatment D: single 133.3 mg/kg MT1621, fed (high-fat breakfast), baseline-adjusted plasma, geometric mean (geometric CV %), read-out: AUC0-48): 55.8 ng·h/mL
- AUC(0-t) (both sexes, human, plasma, oral, 133.3 mg/kg, Treatment D: single 133.3 mg/kg MT1621, fed (high-fat breakfast), baseline-adjusted plasma, geometric mean (geometric CV %), read-out: AUC0-t): 73 ng·h/mL
- Cmax (both sexes, human, plasma, oral, 133.3 mg/kg, Treatment D: single 133.3 mg/kg MT1621, fed (high-fat breakfast), baseline-adjusted plasma, geometric mean (geometric CV %), read-out: Cmax): 12.8 ng/mL
- Tmax (both sexes, human, plasma, oral, 133.3 mg/kg, Treatment D: single 133.3 mg/kg MT1621, fed (high-fat breakfast), baseline-adjusted plasma, median (minimum, maximum), read-out: Tmax): 2.02 h
- Tmax (both sexes, human, plasma, oral, under fasted conditions, read-out: median Tmax): 1 to 1.25 h
- Tmax (both sexes, human, plasma, oral, under fed conditions, read-out: median Tmax): 1 h
- plasma exposure compared to endogenous (baseline) concentrations (following MT1621, all 3 dose levels): consistently higher
